From US20080275058A1, “N-Substituted-1H-Quinoline-2,4-Diones, Preparation Method Thereof, And Pharmaceutical Composition Containing The Same” (KOREA RESEARCH INSTITUTE OF CHEMICAL TECHNOLOGY, priority 2005, published 2008)
Read-outs that look alike come from different tables or passages of the source.

Legend:
5-HT6 receptors [1] = molecular target: T1, 5-HT6 receptors (Homo sapiens, UniProt P50406); details: human 5-HT6 receptors, background literature; cited from earlier work
5-HT6 receptors [2] = molecular target: T1, 5-HT6 receptors; details: background literature, cited from earlier work; for affinity at 5-HT6 receptors, in words: antipsychotics
rat = details: cited from earlier work
[3] = in vivo; cited from earlier work
rats [4] = details: water maze; cited from earlier work
5-HT1a = molecular target: T2, 5-HT1a (Homo sapiens, UniProt P08908); experiment: Radioligand binding, 5-HT1a ([3H]8-OH-DPAT); details: Table 4; [3H]8-OH-DPAT 0.5 nM; read-out: Binding affinity, IC50 (nM) 5-HT1a
T2 construct: purchased Euroscreen/BioSignal Packard Inc
T2 sequence (P08908 1-422): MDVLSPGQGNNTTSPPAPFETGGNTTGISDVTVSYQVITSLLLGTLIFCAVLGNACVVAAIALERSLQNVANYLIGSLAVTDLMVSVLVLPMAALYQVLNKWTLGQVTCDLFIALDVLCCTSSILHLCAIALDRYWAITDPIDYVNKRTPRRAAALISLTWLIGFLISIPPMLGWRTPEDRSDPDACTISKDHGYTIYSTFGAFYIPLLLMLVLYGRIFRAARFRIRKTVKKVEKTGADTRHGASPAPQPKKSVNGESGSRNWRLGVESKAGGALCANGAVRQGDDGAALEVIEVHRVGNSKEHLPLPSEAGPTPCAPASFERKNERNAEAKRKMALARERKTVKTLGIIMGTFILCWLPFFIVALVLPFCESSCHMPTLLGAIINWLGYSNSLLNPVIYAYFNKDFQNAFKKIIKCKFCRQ
Summary of the method: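 Binding was measured on commercial receptor membrane preparations, following the membrane supplier's own test protocol.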

5-HT7 = molecular target: T3, 5-HT7 (Homo sapiens, UniProt P34969); experiment: Radioligand binding, 5-HT7 ([3H]LSD); details: Table 4; [3H]LSD 3 nM; read-out: Binding affinity, IC50 (nM) 5-HT7
T3 construct: purchased Euroscreen/BioSignal Packard Inc
T3 sequence (P34969 whole entry): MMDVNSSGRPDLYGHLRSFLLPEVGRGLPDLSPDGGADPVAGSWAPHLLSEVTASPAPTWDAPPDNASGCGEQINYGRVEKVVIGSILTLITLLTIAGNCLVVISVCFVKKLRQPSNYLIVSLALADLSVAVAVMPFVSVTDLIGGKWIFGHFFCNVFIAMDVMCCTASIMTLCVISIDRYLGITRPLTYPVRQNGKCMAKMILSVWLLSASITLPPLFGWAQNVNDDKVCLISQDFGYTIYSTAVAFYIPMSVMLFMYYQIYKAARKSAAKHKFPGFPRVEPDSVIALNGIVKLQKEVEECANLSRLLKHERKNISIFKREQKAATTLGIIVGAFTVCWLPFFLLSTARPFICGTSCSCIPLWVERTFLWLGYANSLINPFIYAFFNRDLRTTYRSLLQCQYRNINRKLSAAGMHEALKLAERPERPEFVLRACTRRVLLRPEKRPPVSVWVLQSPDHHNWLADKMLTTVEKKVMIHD

hD2L = molecular target: T4, hD2L (Homo sapiens, UniProt P14416); experiment: Radioligand binding, dopamine D2 ([3H]spiperone); details: Table 4; [3H]spiperone 1 nM; read-out: Binding affinity, IC50 (nM) D2
T4 construct: purchased BioSignal Packard Inc., Montreal, Canada
T4 sequence (P14416 whole entry): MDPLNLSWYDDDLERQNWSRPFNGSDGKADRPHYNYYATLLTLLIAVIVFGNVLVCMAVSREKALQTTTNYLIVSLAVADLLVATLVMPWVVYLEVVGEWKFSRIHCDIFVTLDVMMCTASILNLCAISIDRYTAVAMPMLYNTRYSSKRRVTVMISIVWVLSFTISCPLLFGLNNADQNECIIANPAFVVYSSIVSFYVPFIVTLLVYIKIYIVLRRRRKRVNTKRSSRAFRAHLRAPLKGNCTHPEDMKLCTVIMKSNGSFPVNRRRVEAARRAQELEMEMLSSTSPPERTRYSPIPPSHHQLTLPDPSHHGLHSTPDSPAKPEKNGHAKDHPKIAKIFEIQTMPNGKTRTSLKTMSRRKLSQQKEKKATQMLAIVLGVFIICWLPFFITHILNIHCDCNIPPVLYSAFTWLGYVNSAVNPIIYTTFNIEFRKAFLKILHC
Summary of the method: (§1)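 Membrane competition binding with [3H]spiperone (1 nM) for hD2L and hD3, or [3H]YM-09151-2 (0.06 nM) for hD4.2, each in receptor-specific Tris-HCl pH 7.4 buffer containing Mg2+/EDTA (D3 and D4 also with K+, Ca2+; D3 with 120 mM NaCl). Compounds were tested at 7-8 concentrations in duplicate, and IC50 was derived by nonlinear regression across three assays.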

hD3 = molecular target: T5, hD3 (Homo sapiens, UniProt P35462); experiment: Radioligand binding, dopamine D3 ([3H]spiperone); details: Table 4; [3H]spiperone 1 nM; read-out: Binding affinity, IC50 (nM) D3
T5 construct: purchased BioSignal Packard Inc., Montreal, Canada
T5 sequence (P35462 whole entry): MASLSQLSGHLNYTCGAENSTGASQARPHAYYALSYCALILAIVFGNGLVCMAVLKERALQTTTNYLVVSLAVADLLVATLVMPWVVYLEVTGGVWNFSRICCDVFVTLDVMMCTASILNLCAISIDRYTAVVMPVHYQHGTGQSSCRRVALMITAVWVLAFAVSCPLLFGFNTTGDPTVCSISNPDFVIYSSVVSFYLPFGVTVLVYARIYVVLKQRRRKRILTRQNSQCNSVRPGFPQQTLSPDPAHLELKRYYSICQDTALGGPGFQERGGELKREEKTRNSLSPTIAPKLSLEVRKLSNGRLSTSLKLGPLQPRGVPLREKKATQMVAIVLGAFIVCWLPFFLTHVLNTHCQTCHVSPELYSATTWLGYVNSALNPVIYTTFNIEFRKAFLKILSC
Summary of the method: as §1

Rotarod deficit in mice = format: in vivo, mouse; details: mouse, in vivo, po, unit printed as image, read-out: TD50 (median neurotoxic dose)
Description: (§2) The mouse was placed on a 1 inch diameter knurled plastic rod rotating at 6 rpm (Ugo-Basile, Milano, Italy), and the rotarod deficit (%) was obtained by counting the number of animals fallen from the rotating rod within 1 min [Dunham et al., 1957] at 60, 90 and 120 min after the injection of the compound according to the invention(200, 300 or 400 ? ). […] The compounds of the examples were suspended in 3% Tween 80 solution, and were administered (p.o.) 60 min before the testing.

mice = experiment: Rotarod deficit in mice; format: in vivo, mouse
Description: as §2

5-HT2c = molecular target: T6, 5-HT2c (Homo sapiens, UniProt P28335); experiment: Radioligand binding, 5-HT2c ([3H]Mesulergine); details: Table 4; [3H]Mesulergine 1 nM; read-out: Binding affinity, IC50 (nM) 5-HT2c
T6 construct: purchased Euroscreen/BioSignal Packard Inc
T6 sequence (P28335 33-458): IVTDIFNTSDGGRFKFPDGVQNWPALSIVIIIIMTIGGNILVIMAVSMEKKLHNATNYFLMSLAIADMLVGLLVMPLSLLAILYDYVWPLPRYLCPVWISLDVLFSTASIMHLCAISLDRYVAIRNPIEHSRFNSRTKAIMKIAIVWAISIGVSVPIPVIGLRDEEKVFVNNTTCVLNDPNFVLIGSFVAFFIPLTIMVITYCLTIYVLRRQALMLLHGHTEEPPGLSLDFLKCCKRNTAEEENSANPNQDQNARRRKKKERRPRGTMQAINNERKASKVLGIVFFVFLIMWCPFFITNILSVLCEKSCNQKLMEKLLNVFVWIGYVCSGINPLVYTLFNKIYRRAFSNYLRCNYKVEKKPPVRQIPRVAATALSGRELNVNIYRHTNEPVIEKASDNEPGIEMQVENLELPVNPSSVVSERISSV

hD4.2 receptor = molecular target: T7, hD4.2 receptor (Homo sapiens, UniProt P21917, DEL265-296); experiment: Radioligand binding, dopamine D4 ([3H]YM-09151-2); details: Table 4; [3H]YM-09151-2 0.06 nM; read-out: Binding affinity, IC50 (nM) D4
T7 construct: purchased BioSignal Packard Inc., Montreal, Canada
T7 sequence (P21917 with tags, fused parts or gaps DEL265-296): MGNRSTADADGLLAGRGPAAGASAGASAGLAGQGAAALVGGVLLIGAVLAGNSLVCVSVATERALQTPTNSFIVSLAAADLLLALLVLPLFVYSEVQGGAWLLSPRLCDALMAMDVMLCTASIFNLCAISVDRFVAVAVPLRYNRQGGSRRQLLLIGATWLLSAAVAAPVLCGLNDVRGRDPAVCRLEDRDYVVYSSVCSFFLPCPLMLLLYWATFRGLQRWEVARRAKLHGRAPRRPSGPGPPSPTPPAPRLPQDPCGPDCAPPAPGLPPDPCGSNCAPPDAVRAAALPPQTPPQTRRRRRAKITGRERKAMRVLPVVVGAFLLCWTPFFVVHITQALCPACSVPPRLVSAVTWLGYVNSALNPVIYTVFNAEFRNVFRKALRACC
Summary of the method: as §1

D1 = D1 (Homo sapiens, UniProt P21728); experiment: Radioligand binding, dopamine D1; details: Table 4; read-out: Binding affinity, IC50 (nM) D1
Chain of D1 (P21728 whole entry): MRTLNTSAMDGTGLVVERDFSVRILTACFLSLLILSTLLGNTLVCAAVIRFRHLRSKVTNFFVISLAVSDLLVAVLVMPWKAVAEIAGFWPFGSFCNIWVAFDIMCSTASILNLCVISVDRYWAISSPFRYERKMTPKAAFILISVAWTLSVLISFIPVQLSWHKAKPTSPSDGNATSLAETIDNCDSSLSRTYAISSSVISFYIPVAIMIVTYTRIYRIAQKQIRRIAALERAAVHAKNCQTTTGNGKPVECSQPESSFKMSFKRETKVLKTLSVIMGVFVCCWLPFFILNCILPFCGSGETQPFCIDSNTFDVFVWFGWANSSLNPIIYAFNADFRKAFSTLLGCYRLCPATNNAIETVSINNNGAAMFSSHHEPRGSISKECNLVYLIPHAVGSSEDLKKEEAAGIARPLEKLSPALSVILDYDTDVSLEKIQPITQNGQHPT

5-HT2a = molecular target: T8, 5-HT2a (Homo sapiens, UniProt P28223); experiment: Radioligand binding, 5-HT2a ([3H]Ketanserin); details: Table 4; [3H]Ketanserin 1 nM; read-out: Binding affinity, IC50 (nM) 5-HT2a
T8 construct: purchased Euroscreen/BioSignal Packard Inc
T8 sequence (P28223 whole entry): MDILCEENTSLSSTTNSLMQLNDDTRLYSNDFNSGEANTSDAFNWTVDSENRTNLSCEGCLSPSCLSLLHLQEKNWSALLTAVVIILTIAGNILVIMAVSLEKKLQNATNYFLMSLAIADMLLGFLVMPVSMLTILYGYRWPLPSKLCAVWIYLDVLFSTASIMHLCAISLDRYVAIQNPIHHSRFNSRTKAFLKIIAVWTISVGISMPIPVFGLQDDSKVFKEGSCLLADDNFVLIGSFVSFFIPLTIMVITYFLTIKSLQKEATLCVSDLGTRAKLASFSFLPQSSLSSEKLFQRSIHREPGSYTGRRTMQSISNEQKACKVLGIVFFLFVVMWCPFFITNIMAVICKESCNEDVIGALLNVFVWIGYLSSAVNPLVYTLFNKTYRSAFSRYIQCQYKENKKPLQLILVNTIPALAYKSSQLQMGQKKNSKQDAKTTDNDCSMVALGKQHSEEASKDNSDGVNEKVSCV

[5] = molecular target: T9, Human serotonin 5-HT6 receptor (Homo sapiens, UniProt P50406); experiment: [3H]LSD binding assay on cloned 5-HT6 receptor membranes; details: for binding affinity at 5-HT6 receptor labeled by [3H]LSD, in words: comment on Table 2
T9 construct: made in house; host or cells: insect Sf21 cells (baculovirus vector BacPAK8)
T9 sequence (P50406 whole entry): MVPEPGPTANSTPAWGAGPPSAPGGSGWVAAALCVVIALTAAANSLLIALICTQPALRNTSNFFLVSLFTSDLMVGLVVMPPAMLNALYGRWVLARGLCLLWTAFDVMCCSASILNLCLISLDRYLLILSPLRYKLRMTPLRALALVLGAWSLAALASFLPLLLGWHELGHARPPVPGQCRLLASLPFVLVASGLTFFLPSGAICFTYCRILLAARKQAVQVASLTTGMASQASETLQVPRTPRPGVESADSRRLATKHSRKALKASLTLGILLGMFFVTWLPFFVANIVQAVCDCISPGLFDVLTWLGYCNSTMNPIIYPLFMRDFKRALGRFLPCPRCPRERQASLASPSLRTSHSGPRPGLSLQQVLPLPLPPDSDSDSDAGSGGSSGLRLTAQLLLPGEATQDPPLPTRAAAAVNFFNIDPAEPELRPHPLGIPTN

rats [6] = details: cited from earlier work
rats [7] = details: cited from earlier work; remark: listed apart in the source
[8] = Table 2, 1.87 nM [3H]LSD, 37 C, 60 min, read-out: IC50 (nM), binding affinity to the 5-HT6 receptor
[9] = Table 4, read-out: Binding affinity, IC50 (nM) 5-HT6

T1 sequence (P50406 whole entry): as above

| SMILES | IC50 (5-HT1a) [nM] | IC50 (5-HT7) [nM] | IC50 (hD2L) [nM] | IC50 (hD3) [nM] | TD50 at 120 min (Rotarod deficit in mice) [mg/kg] | Rotarod deficit (%) (mice; 200 p.o. (dose unit not given)) | Rotarod deficit (%) (mice; 300 p.o. (dose unit not given)) | Rotarod deficit (%) (mice; 400 p.o. (dose unit not given)) | IC50 (5-HT2c) [nM] | IC50 (hD4.2 receptor) [nM] | IC50 (D1) [nM] | IC50 (5-HT2a) [nM] | melting point [°C] | IC50 [5, 8] [nM] | IC50 [5, 9] [nM] | further results |
| --- | --- | --- | --- | --- | --- | --- | --- | --- | --- | --- | --- | --- | --- | --- | --- | --- |
| COc1ccc2c(c1)c(CCN(C)C)cn2S(=O)(=O)c1ccccc1 [MS-245] |  |  |  |  |  |  |  |  |  |  |  |  |  |  |  | pA2, antagonist (5-HT6 receptors [1]): 8.88 |
| CN(C)CCCN1c2ccccc2Sc2ccc(Cl)cc21 [chlorpromazine] |  |  |  |  |  |  |  |  |  |  |  |  |  |  |  | affinity at 5-HT6 receptors, in words (5-HT6 receptors [2]): bind with high affinity |
| COc1ccc(S(=O)(=O)Nc2cc(Br)cc(F)c2Br)cc1N1CCNCC1 [SB-357134] |  |  |  |  |  |  |  |  |  |  |  |  |  |  |  | seizure threshold (rat; rat maximal electroseizure threshold, oral administration): potent and dose-dependent increase; clearance and bioavailability, in words [3]: low clearance rate and excellent oral bioavailability; retention of a previously learned task (rats [4]): significant improvement |
| CN1CCN(c2cc(Cl)cc3c2C(=O)C(C)(c2ccc(O)cc2)C(=O)N3Cc2ccccc2)CC1 (stereo not drawn) [Example 2, 1-Benzyl-7-chloro-3-(4-hydroxy-phenyl)-3-methyl-5-(4-methyl-piperazin-1-yl)-1H-quinoline-2,4-dione] | > 10000 | 920 | > 10000 | 589 | > 400 | 0 | 0 | 0 | 487 | > 10000 | 4970 | 2620 | 258 to 259 | 2.5 | 2.5 |  |
| CC1(c2ccc(O)cc2)C(=O)c2c(N3CCNCC3)cc(Cl)cc2N(Cc2cccc(O)c2)C1=O (stereo not drawn) [Example 28, 7-Chloro-1-(3-hydroxy-benzyl)-3-(4-hydroxy-phenyl)-3-methyl-5-piperazin-1-yl-1H-quinoline-2,4-dione] | > 10000 | > 10000 | > 10000 | > 1000 | > 400 | 0 | 0 | 0 | > 10000 | > 10000 | > 10000 | > 10000 | 229 to 230 | 3 | 3 |  |
| CN1CCN(c2cc(Cl)cc3c2C(=O)C(C)(c2ccccc2)C(=O)N3Cc2ccccc2)CC1 (stereo not drawn) [Example 11, 1-Benzyl-7-chloro-3-methyl-5-(4-methyl-piperazin-1-yl)-3-phenyl-1H-quinoline-2,4-dione] | 2590 | 2200 | 844 | 678 | > 400 | 0 | 0 | 0 | 514 | > 10000 | 4670 | 1230 | 138 to 140 | 1.4 | 1.4 | binding affinity at 5-HT6 receptor labeled by [3H]LSD, in words [5]: significant affinities |
| CN(C)CC/C=C1/c2ccccc2Sc2ccc(Cl)cc21 [chlorprothixene] |  |  |  |  |  |  |  |  |  |  |  |  |  |  |  | affinity at 5-HT6 receptors, in words (5-HT6 receptors [2]): bind with high affinity |
| CNc1cc(NS(=O)(=O)c2ccc(N)cc2)cc(NC)n1 [Ro 63-0563] |  |  |  |  |  |  |  |  |  |  |  |  |  |  |  | Ki (5-HT6 receptors [2]): 12 nM |
| COc1ccc(C2(C)C(=O)c3c(N4CCN(C)CC4)cc(Cl)cc3N(Cc3ccccc3)C2=O)cc1 (stereo not drawn) [Example 1, 1-Benzyl-7-chloro-3-(4-methoxy-phenyl)-3-methyl-5-(4-methyl-piperazin-1yl)-1H-quinoline-2,4-dione] | 4410 | 7490 | > 10000 | 2280 | > 400 | 0 | 0 | 0 | > 10000 | 8020 | 174 | 1120 | 66 to 67 | 1.9 | 1.9 | binding affinity at 5-HT6 receptor labeled by [3H]LSD, in words [5]: significant affinities |
| CN1CCN(c2cc(Cl)cc3c2C(=O)C(C)(c2ccc([N+](=O)[O-])cc2)C(=O)N3Cc2ccccc2)CC1 (stereo not drawn) [Example 3, 1-Benzyl-7-chloro-3-methyl-5-(4-methyl-piperazin-1-yl)-3-(4-nitro-phenyl)-1H-quinolin-2,4-dione] | 5730 | 4570 | > 10000 | 360 | > 400 | 0 | 0 | 0 | > 10000 | > 10000 | 814 | 1540 | 179 to 180 | 4.7 | 4.7 |  |
| CC1(c2ccc(I)cc2)C(=O)c2c(N3CCNCC3)cc(Cl)cc2N(Cc2ccccc2)C1=O (stereo not drawn) [Example 21, 1-Benzyl-7-chloro-3-(4-iodo-phenyl)-3-methyl-5-piperazin-1-yl-1H-quinoline-2,4-dione] | 468 | 3340 | 1640 | 1050 | > 400 | 0 | 0 | 0 | 1810 | 5870 | 1620 | 553 | 176 to 177 | 6.9 | 6.9 |  |
| CNc1cc(NS(=O)(=O)c2ccc(N)cc2)nc(NC)n1 [Ro 04-6790] |  |  |  |  |  |  |  |  |  |  |  |  |  |  |  | induction of behavior of yawning, stretching, and chewing (rats [6]): capable of inducing this same effect; anticonvulsant activity (rat; background literature): possess anticonvulsant activity; food intake (rats [7]): decreased food intake |
